We go through 34 compounds from the Kinase Knowledgebase extract (Sharma et al. 2016).

SMILES strings stand for the structures. Bounds are passed on as bounds.

The target in assay [1] is PIK3CA (human) (UniProt P42336). Put plainly: Inhibition of PIK3CA Kinase Activity.
The target is the same in assay [2]. Put plainly: Inhibition of A2780 Cell Proliferation.

PIK3CA (human), sequence (P42336 whole entry, looked up): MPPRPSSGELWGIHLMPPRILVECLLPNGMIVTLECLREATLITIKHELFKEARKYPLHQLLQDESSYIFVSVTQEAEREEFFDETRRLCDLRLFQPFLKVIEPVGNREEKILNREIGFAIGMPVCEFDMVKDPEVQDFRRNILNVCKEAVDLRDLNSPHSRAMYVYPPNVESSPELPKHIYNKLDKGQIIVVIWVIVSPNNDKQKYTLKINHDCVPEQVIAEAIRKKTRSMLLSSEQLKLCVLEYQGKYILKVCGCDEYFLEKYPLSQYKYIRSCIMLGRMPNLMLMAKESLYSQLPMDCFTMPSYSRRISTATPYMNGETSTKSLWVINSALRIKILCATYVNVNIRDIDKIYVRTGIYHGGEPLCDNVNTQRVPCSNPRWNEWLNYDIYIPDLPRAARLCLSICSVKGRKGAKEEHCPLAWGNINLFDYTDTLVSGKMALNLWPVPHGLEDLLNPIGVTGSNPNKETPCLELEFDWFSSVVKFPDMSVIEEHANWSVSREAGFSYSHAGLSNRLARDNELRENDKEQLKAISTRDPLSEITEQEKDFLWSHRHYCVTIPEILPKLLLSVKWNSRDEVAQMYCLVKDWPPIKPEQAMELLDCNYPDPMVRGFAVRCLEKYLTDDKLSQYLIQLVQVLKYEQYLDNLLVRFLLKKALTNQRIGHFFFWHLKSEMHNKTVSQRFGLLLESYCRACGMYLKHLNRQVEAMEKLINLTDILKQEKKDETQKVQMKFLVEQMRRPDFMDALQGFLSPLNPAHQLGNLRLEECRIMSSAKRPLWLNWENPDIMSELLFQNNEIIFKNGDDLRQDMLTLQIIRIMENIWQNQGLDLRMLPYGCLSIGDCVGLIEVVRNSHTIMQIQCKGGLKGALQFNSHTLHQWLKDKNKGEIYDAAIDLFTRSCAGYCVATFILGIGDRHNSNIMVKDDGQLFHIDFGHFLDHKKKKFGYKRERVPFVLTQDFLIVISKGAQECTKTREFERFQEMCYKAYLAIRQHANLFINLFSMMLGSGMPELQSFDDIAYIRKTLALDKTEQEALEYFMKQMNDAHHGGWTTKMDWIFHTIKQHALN

As to `CC(C)(C)OC(=O)N1CCC[C@@H]1C(=O)Nc1cn2nc(-c3cnc(N)c(C(F)(F)F)c3)ccc2n1`, at PIK3CA (human) [1], the half-maximal inhibitory concentration (IC50) was less than 1000 nM. This compound also had an EC50 on PIK3CA (human) [2] of less than 25000 nM.

`NC(=O)[C@@H]1CCCN1C(=O)Nc1nc2ccc(-c3cnc(N)c(C(F)(F)F)c3)cc2s1` registered an IC50 on PIK3CA (human) [1] of less than 1000 nM. Further, on PIK3CA (human) [2], the concentration for a half-maximal effect (EC50) is less than 10000 nM.

Compound `CC(C)(C)OC(=O)N1CCC(OCC(=O)Nc2cn3cc(-c4cnc(N)c(C(F)(F)F)c4)ccc3n2)CC1` registered an IC50 at PIK3CA (human) [1] of less than 1000 nM. Further, the 50% effective concentration (EC50) on PIK3CA (human) [2] was less than 10000 nM.

Consider `CC(=O)NC1CCN(C(=O)Nc2cn3cc(-c4cnc(N)c(C(F)(F)F)c4)ccc3n2)C1` (stereo not drawn), for which the IC50 against PIK3CA (human) [1] was less than 1000 nM. The compound further came in with a half-maximal effective concentration (EC50) on PIK3CA (human) [2] of less than 25000 nM.

Compound `COc1ccc(CC(=O)Nc2cn3cc(-c4cnc(N)c(C(F)(F)F)c4)ccc3n2)cc1` displayed a half-inhibitory concentration (IC50) on PIK3CA (human) [1] of less than 1000 nM. On PIK3CA (human) [2], this compound gave an EC50 of less than 1000 nM.

Compound `N#Cc1cccc(C(=O)Nc2cn3cc(-c4cnc(N)c(C(F)(F)F)c4)ccc3n2)c1` registered an IC50 on PIK3CA (human) [1] of less than 1000 nM. In addition, the EC50 on PIK3CA (human) [2] was less than 10000 nM.

The compound `CC(=O)Nc1nc2ccc(-c3cnc(N)c(OCC(F)(F)F)n3)cc2s1` returned an IC50 against PIK3CA (human) [1] of less than 1000 nM. On PIK3CA (human) [2], this compound yielded a half-maximal effective concentration (EC50) of less than 1000 nM.

Regarding `CC(=O)Nc1cn2cc(-c3cnc(N)cc3F)ccc2n1`, the IC50 at PIK3CA (human) [1] was less than 1000 nM. Also, the EC50 at PIK3CA (human) [2] was less than 25000 nM.

`CC(=O)Nc1cn2cc(-c3cnc(N)c(C#N)c3)ccc2n1` had a half-inhibitory concentration (IC50) against PIK3CA (human) [1] of less than 1000 nM. On PIK3CA (human) [2], this compound registered an EC50 of less than 10000 nM.

At PIK3CA (human) [1], `CC(=O)Nc1cn2cc(-c3cnc(N)c(-c4cccc(OC(F)(F)F)c4)c3)ccc2n1` displayed an IC50 of less than 1000 nM. This compound displayed an EC50 at PIK3CA (human) [2] of less than 1000 nM.

As for `CC(=O)Nc1cn2cc(-c3cnc(N)c(C=NOC(C)(C)C)c3)ccc2n1`, the IC50 at PIK3CA (human) [1] was less than 1000 nM. In addition, the EC50 at PIK3CA (human) [2] was less than 25000 nM.

`NC(=O)Nc1cn2cc(-c3cnc(N)c(C(F)(F)F)c3)ccc2n1` showed a half-inhibitory concentration (IC50) at PIK3CA (human) [1] of less than 1000 nM. This compound showed an EC50 on PIK3CA (human) [2] of less than 10000 nM.

For `C[C@@H](NC(=O)OC(C)(C)C)C(=O)Nc1cn2nc(-c3cnc(N)c(C(F)(F)F)c3)ccc2n1`, the IC50 at PIK3CA (human) [1] is less than 1000 nM. At PIK3CA (human) [2], this compound had a half-maximal effective concentration (EC50) of less than 10000 nM.

On to `Nc1ncc(-c2ccc3nc(NC(=O)[C@@H]4CCCN4)cn3c2)cc1C(F)(F)F`, for which the IC50 against PIK3CA (human) [1] was less than 25000 nM. The compound further gave a 50% effective concentration (EC50) on PIK3CA (human) [2] of less than 10000 nM.

Compound `Nc1ncc(-c2ccc3nc(NC(=O)CCCN4CCOCC4)cn3n2)cc1C(F)(F)F` yielded an IC50 on PIK3CA (human) [1] of less than 1000 nM. The compound also displayed a concentration for a half-maximal effect (EC50) at PIK3CA (human) [2] of less than 1000 nM.

On to `CC(=O)Nc1nc2ccc(-c3cnc(N)c(C(F)(F)F)c3)cn2c1C#CCN1CCOCC1`, for which the IC50 at PIK3CA (human) [1] is less than 1000 nM. This compound showed an EC50 on PIK3CA (human) [2] of less than 10000 nM.

Turning to `CC(=O)Nc1cn2nc(-c3cnc(N)c(C(=O)NCCNC(=O)OC(C)(C)C)c3)ccc2n1`, on PIK3CA (human) [1], the IC50 was less than 1000 nM. The concentration for a half-maximal effect (EC50) at PIK3CA (human) [2] was less than 1000 nM.

On PIK3CA (human) [1], `CC(C)(C)OC(=O)NCC(=O)Nc1cn2cc(-c3cnc(N)c(C(F)(F)F)c3)ccc2n1` showed a half-inhibitory concentration (IC50) of less than 1000 nM. In addition, the EC50 on PIK3CA (human) [2] was less than 10000 nM.

As for `Nc1ncc(-c2ccc3nc(NC(=O)CCCO)cn3c2)cc1C(F)(F)F`, the IC50 on PIK3CA (human) [1] is less than 1000 nM. In addition, the EC50 at PIK3CA (human) [2] is less than 10000 nM.

Regarding `NC(=O)N1CCC[C@H]1C(=O)Nc1cn2cc(-c3cnc(N)c(C(F)(F)F)c3)ccc2n1`, the 50% inhibitory concentration (IC50) against PIK3CA (human) [1] is less than 10000 nM. The compound further yielded a half-maximal effective concentration (EC50) at PIK3CA (human) [2] of less than 10000 nM.

As to `CNC(=O)C1CCN(C(=O)Nc2cn3cc(-c4cnc(N)c(C(F)(F)F)c4)ccc3n2)C1` (stereo not drawn), on PIK3CA (human) [1], the IC50 is less than 1000 nM. At PIK3CA (human) [2], this compound gave an EC50 of less than 25000 nM.

In turn, `CC(=O)Nc1nc2ccc(-c3cnc(N)c(C(F)(F)F)c3)cn2c1C#Cc1cccnc1` registered an IC50 on PIK3CA (human) [1] of less than 1000 nM. The same compound came in with an EC50 at PIK3CA (human) [2] of less than 1000 nM.

As for `CCCNc1ccc(-c2ccc3nc(NC(C)=O)sc3c2)cn1`, the IC50 at PIK3CA (human) [1] was less than 1000 nM. The compound also displayed an EC50 on PIK3CA (human) [2] of less than 25000 nM.

For the compound `CC(=O)Nc1cn2nc(-c3cnc(N)c(-c4ccccc4F)c3)ccc2n1`, the IC50 at PIK3CA (human) [1] is less than 1000 nM. On PIK3CA (human) [2], this compound yielded an EC50 of less than 1000 nM.

Turning to `Nc1ncc(-c2ccc3nc(NC(=O)CCCN4CCOCC4)cn3c2)cc1C(F)(F)F`, the half-maximal inhibitory concentration (IC50) against PIK3CA (human) [1] was less than 1000 nM. Also, at PIK3CA (human) [2], the half-maximal effective concentration (EC50) was less than 10000 nM.

Regarding `COc1ccc(C#Cc2c(NC(C)=O)nc3ccc(-c4cnc(N)c(C(F)(F)F)c4)cn23)cc1`, the IC50 against PIK3CA (human) [1] is less than 1000 nM. Besides, at PIK3CA (human) [2], the concentration for a half-maximal effect (EC50) is less than 10000 nM.

Consider `CC(=O)Nc1nc2ccc(-c3cnc(N)c(C(F)(F)F)c3)cn2c1C#Cc1ccncc1`, for which the half-maximal inhibitory concentration (IC50) against PIK3CA (human) [1] is less than 1000 nM. The 50% effective concentration (EC50) on PIK3CA (human) [2] is less than 1000 nM.

In turn, `COc1cc(-c2ccc3nc(NC(C)=O)cn3c2C)cnc1N` had a concentration for half-maximal inhibition (IC50) at PIK3CA (human) [1] of less than 1000 nM. The concentration for a half-maximal effect (EC50) at PIK3CA (human) [2] was less than 25000 nM.

The compound `Nc1ncc(-c2ccc3nc(NC(=O)c4ccc(F)nc4)cn3c2)cc1C(F)(F)F` gave an IC50 against PIK3CA (human) [1] of less than 1000 nM. Moreover, on PIK3CA (human) [2], the EC50 was less than 25000 nM.

As to `Nc1ncc(-c2ccc3nc(NC(=O)CO[C@@H]4CCNC4)cn3n2)cc1C(F)(F)F`, the IC50 on PIK3CA (human) [1] was less than 1000 nM. The same compound registered an EC50 at PIK3CA (human) [2] of less than 1000 nM.

For the compound `C=Cc1c(NC(C)=O)nc2ccc(-c3cnc(N)c(C(F)(F)F)c3)cn12`, the 50% inhibitory concentration (IC50) on PIK3CA (human) [1] was less than 1000 nM. In addition, on PIK3CA (human) [2], the EC50 is less than 25000 nM.

`Cc1ccc(C2CCCN2C(=O)Nc2cn3cc(-c4cnc(N)c(C(F)(F)F)c4)ccc3n2)s1` (stereo not drawn): the IC50 against PIK3CA (human) [1] is less than 1000 nM. This compound also had a concentration giving a half-maximal response (EC50) at PIK3CA (human) [2] of less than 25000 nM.

Consider `Nc1ncc(-c2ccc3nc(NC(=O)CCCC(=O)O)cn3n2)cc1C(F)(F)F`, for which the half-maximal inhibitory concentration (IC50) against PIK3CA (human) [1] is less than 1000 nM. This compound also returned an EC50 at PIK3CA (human) [2] of less than 25000 nM.

On PIK3CA (human) [1], `C/C=C/C(=O)Nc1cn2cc(-c3cnc(N)c(C(F)(F)F)c3)ccc2n1` came in with an IC50 of less than 1000 nM. Also, on PIK3CA (human) [2], the EC50 is less than 10000 nM.
